Test results published in ChEMBL document CHEMBL1201862, “PubChem BioAssay data set” (2004).
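48-hour exposure; five concentrations; linearly interpolated endpoints. The concentration for 50% growth inhibition is given as GI50.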 The source made the active and inactive calls. Cut-off read from the data, not from the text of the source: active = GI50 up to about 1.1 µM and inactive = higher.

What was measured:
Test in all cases: NCI-60 cell line screen, 48 h
786-0 = system: 786-0
A549 = system: A549
ACHN = system: ACHN
CAKI-1 = system: CAKI-1
COLO 205 = system: COLO 205
DLD-1 = system: DLD-1
DMS-114 = system: DMS-114
DMS-273 = system: DMS-273
EKVX = system: EKVX
HCT-116 = system: HCT-116
HCT-15 = system: HCT-15
HOP-92 = system: HOP-92
HT-29 = system: HT-29
IGROV-1 = system: IGROV-1
K562 = system: K562
KM-20L2 = system: KM-20L2
KM12 = system: KM12
LXFL 529 = system: LXFL 529
M14 = system: M14
M19-MEL = system: M19-MEL
MOLT-4 = system: MOLT-4
Malme-3M = system: Malme-3M
NCI-H226 = system: NCI-H226
NCI-H23 = system: NCI-H23
NCI-H460 = system: NCI-H460
NCI-H522 = system: NCI-H522
OVCAR-3 = system: OVCAR-3
OVCAR-4 = system: OVCAR-4
OVCAR-5 = system: OVCAR-5
OVCAR-8 = system: OVCAR-8
RPMI-8226 = system: RPMI-8226
RXF 393 = system: RXF 393
RXF 631 = system: RXF 631
SF-295 = system: SF-295
SF-539 = system: SF-539
SK-MEL-28 = system: SK-MEL-28
SK-MEL-2 = system: SK-MEL-2
SK-MEL-5 = system: SK-MEL-5
SK-OV-3 = system: SK-OV-3
SN12C = system: SN12C
SNB-19 = system: SNB-19
SNB-75 = system: SNB-75
SNB-78 = system: SNB-78
SR = system: SR
SW-620 = system: SW-620
TK-10 = system: TK-10
U-251 = system: U-251
UACC-257 = system: UACC-257
UACC-62 = system: UACC-62
UO-31 = system: UO-31
A498 = system: A498
CCRF-CEM = system: CCRF-CEM
HCC 2998 = system: HCC 2998
HL-60 = system: HL-60
HOP-18 = system: HOP-18
HOP-62 = system: HOP-62
SF-268 = system: SF-268
LOX IMVI = system: LOX IMVI

Measured: GI50

CC1(C)O[C@H]2[C@H](O)C[C@](O)(CO)C[C@H]2O1
> 100 µM: HCT-15
inactive: 786-0 > 100 µM | A549 > 100 µM | ACHN > 100 µM | CAKI-1 > 100 µM | COLO 205 > 100 µM | DLD-1 > 100 µM | DMS-114 > 100 µM | DMS-273 > 100 µM | EKVX > 100 µM | HCT-116 > 100 µM | HOP-92 > 100 µM | HT-29 > 100 µM | IGROV-1 > 100 µM | K562 > 100 µM | KM-20L2 > 100 µM | KM12 > 100 µM | LXFL 529 > 100 µM | M14 > 100 µM | M19-MEL > 100 µM | MOLT-4 > 100 µM | Malme-3M > 100 µM | NCI-H226 > 100 µM | NCI-H23 > 100 µM | NCI-H460 > 100 µM | NCI-H522 > 100 µM | OVCAR-3 > 100 µM | OVCAR-4 > 100 µM | OVCAR-5 > 100 µM | OVCAR-8 > 100 µM | RPMI-8226 > 100 µM | RXF 393 > 100 µM | RXF 631 > 100 µM | SF-295 > 100 µM | SF-539 > 100 µM | SK-MEL-28 > 100 µM | SK-MEL-2 > 100 µM | SK-MEL-5 > 100 µM | SK-OV-3 > 100 µM | SN12C > 100 µM | SNB-19 > 100 µM | SNB-75 48.2 µM | SNB-78 > 100 µM | SR > 100 µM | SW-620 > 100 µM | TK-10 > 100 µM | U-251 > 100 µM | UACC-257 > 100 µM | UACC-62 > 100 µM | UO-31 > 100 µM

O=C(Nc1ccc(Nc2ccc(NC(=O)c3ccccc3)c3c2C(=O)c2ccccc2C3=O)c2c1C(=O)c1ccccc1C2=O)c1ccccc1
> 100 µM: HCT-15
inactive: 786-0 52.5 µM | A498 > 100 µM | A549 > 100 µM | ACHN > 100 µM | CAKI-1 > 100 µM | CCRF-CEM > 100 µM | COLO 205 > 100 µM | DLD-1 > 100 µM | DMS-114 > 100 µM | DMS-273 > 100 µM | EKVX > 100 µM | HCC 2998 > 100 µM | HCT-116 > 100 µM | HL-60 > 100 µM | HOP-18 > 100 µM | HOP-62 > 100 µM | IGROV-1 > 100 µM | K562 > 100 µM | KM-20L2 > 100 µM | KM12 > 100 µM | LXFL 529 > 100 µM | M14 > 100 µM | M19-MEL > 100 µM | MOLT-4 > 100 µM | Malme-3M > 100 µM | NCI-H226 > 100 µM | NCI-H460 > 100 µM | NCI-H522 > 100 µM | OVCAR-3 > 100 µM | OVCAR-4 > 100 µM | OVCAR-8 > 100 µM | RPMI-8226 > 100 µM | RXF 393 > 100 µM | RXF 631 > 100 µM | SF-268 > 100 µM | SF-539 > 100 µM | SK-MEL-28 > 100 µM | SK-MEL-2 > 100 µM | SK-MEL-5 > 100 µM | SK-OV-3 > 100 µM | SN12C > 100 µM | SNB-19 > 100 µM | SNB-75 35.6 µM | SNB-78 > 100 µM | SR > 100 µM | SW-620 > 100 µM | TK-10 > 100 µM | U-251 > 100 µM | UACC-257 > 100 µM | UACC-62 > 100 µM | UO-31 > 100 µM

CCNC(CCCC(NCC)P(=O)(O)O)P(=O)(O)O (stereo not given)
inactive: A498 > 100 µM | A549 > 100 µM | CCRF-CEM > 100 µM | HCT-116 > 100 µM | HL-60 > 100 µM | HOP-62 > 100 µM | HOP-92 > 100 µM | HT-29 > 100 µM | IGROV-1 > 100 µM | KM-20L2 > 100 µM | KM12 > 100 µM | M14 > 100 µM | M19-MEL > 100 µM | MOLT-4 > 100 µM | NCI-H226 > 100 µM | NCI-H23 > 100 µM | NCI-H460 > 100 µM | NCI-H522 > 100 µM | OVCAR-5 > 100 µM | OVCAR-8 > 100 µM | RXF 393 > 100 µM | RXF 631 > 100 µM | SF-295 > 100 µM | SK-MEL-28 > 100 µM | SK-OV-3 > 100 µM | SNB-19 > 100 µM | SNB-78 > 100 µM | SR > 100 µM | TK-10 > 100 µM | U-251 > 100 µM | UACC-257 > 100 µM | UACC-62 > 100 µM | UO-31 > 100 µM

CC(=O)O[C@H]1CSC[C@@H](OC(C)=O)C1[N+](=O)[O-] (stereo not given in full)
inactive: 786-0 19.2 µM | A498 > 100 µM | A549 > 100 µM | ACHN 93.5 µM | CAKI-1 48.6 µM | CCRF-CEM 19.5 µM | COLO 205 21.4 µM | DMS-114 39.1 µM | DMS-273 > 100 µM | EKVX > 100 µM | HCC 2998 33.7 µM | HCT-116 95.3 µM | HL-60 23.2 µM | HOP-18 50.7 µM | HOP-62 > 100 µM | HOP-92 19 µM | HT-29 48.2 µM | IGROV-1 > 100 µM | K562 26.4 µM | KM-20L2 > 100 µM | KM12 63 µM | LXFL 529 18 µM | M14 29.6 µM | M19-MEL 47.3 µM | MOLT-4 27.8 µM | Malme-3M 23 µM | NCI-H226 > 100 µM | NCI-H23 > 100 µM | NCI-H460 > 100 µM | NCI-H522 19.4 µM | OVCAR-3 21.5 µM | OVCAR-4 54.8 µM | OVCAR-5 > 100 µM | OVCAR-8 45.5 µM | RPMI-8226 22.5 µM | RXF 393 20.1 µM | RXF 631 > 100 µM | SF-268 > 100 µM | SF-295 > 100 µM | SF-539 43.8 µM | SK-MEL-28 26.8 µM | SK-MEL-2 27.3 µM | SK-MEL-5 47.8 µM | SK-OV-3 > 100 µM | SN12C > 100 µM | SNB-19 > 100 µM | SNB-75 65.2 µM | SNB-78 33.4 µM | SW-620 27 µM | TK-10 > 100 µM | U-251 > 100 µM | UACC-257 20.6 µM | UACC-62 65.8 µM
30.1 µM: HCT-15

COc1c(C)c(O)c2c(=O)cc(-c3ccccc3)oc2c1C
inactive: 786-0 > 100 µM | A498 > 100 µM | A549 > 100 µM | ACHN > 100 µM | CAKI-1 > 100 µM | CCRF-CEM > 100 µM | DLD-1 > 100 µM | DMS-114 > 100 µM | EKVX > 100 µM | HCC 2998 > 100 µM | HCT-116 > 100 µM | HOP-18 > 100 µM | HOP-62 > 100 µM | HOP-92 > 100 µM | HT-29 > 100 µM | IGROV-1 > 100 µM | K562 > 100 µM | KM-20L2 > 100 µM | KM12 > 100 µM | LOX IMVI > 100 µM | LXFL 529 > 100 µM | M14 > 100 µM | M19-MEL > 100 µM | MOLT-4 > 100 µM | Malme-3M > 100 µM | NCI-H226 > 100 µM | NCI-H23 > 100 µM | NCI-H460 > 100 µM | NCI-H522 > 100 µM | OVCAR-3 > 100 µM | OVCAR-4 > 100 µM | OVCAR-5 > 100 µM | OVCAR-8 > 100 µM | RXF 631 > 100 µM | SF-268 > 100 µM | SF-295 > 100 µM | SF-539 > 100 µM | SK-MEL-28 > 100 µM | SK-MEL-2 > 100 µM | SK-MEL-5 > 100 µM | SK-OV-3 > 100 µM | SN12C > 100 µM | SNB-75 > 100 µM | SNB-78 > 100 µM | SW-620 > 100 µM | TK-10 > 100 µM | U-251 > 100 µM | UACC-257 > 100 µM | UACC-62 > 100 µM | UO-31 > 100 µM
> 100 µM: HCT-15
